Patent US20100204340A1 (priority 2009, published 2010)
Converted amounts (≈) assume the structure as drawn.

Experiments:
[1] = test system: Propionibacterium acnes ATCC 11827; assay: Disc diffusion method, zone of inhibition; type: cell-based
Description: Method: Disc diffusion method was done to study Minimum inhibitory concentration (MIC).
Materials • 1. Propionibacterium acnes ATCC 11827 • 2. Physiological saline or Buffered peptone water (BPW). • 3. Reinforced clostridium medium (RCM) Hi-media • 4. Reinforced clostridium agar (RCA) Hi-media • 5. Anaerobic chamber. • 6. Gassing manifold Nitrogen, mixed gases. • 7. Spectrophotometer (600 nm to 625 nm). • 8. Sterile Petri plates (150 mm×90 mm). • 9. Sterile micro pipettes and sterile micro tips. • 10. Sterile disc 6 mm. • 11. Samples tested: Resveratrol (Batch No.: C81173) and 3-Hydroxypsterostilbene (Batch No.: P80096)
The chamber used in the study is of COY LABORATORY USA model 8301-230, 3 ft polymer. The anaerobic chamber consists of a main chamber where in all the operations and incubation of the culture are carried out and a transfer chamber which is meant for taking the materials in and out of the equipment. The main chamber is provided with a heated fan box in order to maintain the required temperature (37° C.) and to circulate the air in the chamber. A catalyst stakpak is fixed to this fan box which consists of palladium catalyst, which is meant to convert oxygen to water molecules by reacting with hydrogen molecules. The anaerobic condition in the chamber for this is maintained by initialization with Nitrogen gas and then by the Mixture gas of N2+H2+CO2 in the proportion 80:10:10. Two gas tank arrangements have been done where only N2 is connected to the transfer chamber.
To carry out the antimicrobial activity of the products against P.acnes the organism was first cultured in the anaerobic conditions. Culture was inoculated into pre-sterile reinforced Clostridium medium (RCM) and incubated at anaerobic condition for 24 hrs. 24 hr to 48 hrs culture at Optical Density @625 nm was determined 0.632 (1:2 dilution) 4.0 Macfarland standards.
30 ml of sterilized RCM was poured into the pre-sterile Petri plates inside the chamber and allowed to solidify. The culture was inoculated (0.2 ml/plate) and spread evenly. After 30 minutes, antibacterial sterile discs (6 mm) were dispensed. […] 10 μl of the prepared sample and controls were dispensed onto the discs. The plates were incubated inside the anaerobic chamber at 37° C. for 24 to 48 hours duration.

[2] = Pharmacokinetics in serum and urine upon oral administration; type: in vivo, rats; conditions: rat, in vivo, po, 100 mg/kg
Procedure: The compound in its free and conjugated form is freely absorbed into systemic circulation with the glucoronide detected up to 72 hours.
(FIG. 4). The compound in its free and conjugated form appears in systemic circulation within 15 minutes of administration.

[3] = test system: B16F1 mouse melanoma cell line; assay: Melanin inhibitory assay; type: cell-based; conditions: B16-F1
tyrosinase = assay: Anti tyrosinase activity; type: biochemical
[4] = Oxygen Radical Absorbance Capacity (ORAC)
collagenase = assay: Anti collagenase assay; type: biochemical
Elastase = assay: Anti Elastase assay; type: biochemical
α-glucosidase = assay: Anti α-glucosidase activity; type: biochemical
[5] = test system: Bacterial reverse mutation; assay: Bacterial reverse mutation assay (AMES); type: cell-based; conditions: presence and absence of metabolic activation, upto 415 μg/ml
Procedure: 3-hydroxypterostilbene is non mutagenic in the Bacterial reverse mutation assay (AMES), both in the presence and absence of metabolic activation, upto a workable concentration of 415 μg/ml.

in vivo = conditions: both sexes, Sprague Dawley, rat, po
Procedure: (§1) Repeated dose 90 day Oral toxicity study for 3HPT in Sprague Dawley rats: The study was conducted to evaluate the possible health hazards likely to arise from repeated exposure to 3HPT over a relatively limited period of time. The study was conducted in six groups consisting of 120 rats with 60 males and 60 females. Group-I, I (R), II, III, IV and IV (R) served as Control, Control Recovery, Low dose (20 mg/kg Bwt), Mid dose (80 mg/kg Bwt), High dose (200 mg/kg Bwt) and High dose Recovery (200 mg/kg Bwt) groups respectively. The test item or vehicle was administered through oral route by gavage to animals daily for 90 days. The animals of Control group and Control recovery group were administered with Corn oil. The vehicle and test item administration to Control Recovery and High dose Recovery group animals respectively was stopped after 90 days of administration and observed for another 28 days to evaluate the effects during recovery period. […] Body weights and food consumptions were recorded at weekly intervals. On completion of 90 days for treatment groups or 118 days for recovery groups respectively, the blood samples were collected from all the animals and subjected to haematological and clinical chemistry evaluation. At termination the animals were humanely sacrificed and subjected to necropsy examination. […]

Sprague Dawley rats = assay: in vivo; conditions: rat, po
Procedure: as §1

[6] = sample 5.0 % (w/v) in DMSO, 10 μl per 6 mm disc

Oc1ccc(/C=C/c2cc(O)cc(O)c2)cc1 [Resveratrol, 3,4′,5-trihydroxy-trans-stilbene]
Concentration required to produce a zone of inhibition of 10 mm ([1]; disc diffusion, 0.625% w/v): 6.25 mg/mL
Zone of inhibition ([1]; sample 0.078 % (w/v) in DMSO): No zone
Zone of inhibition ([1]; sample 0.156 % (w/v) in DMSO): No zone
Zone of inhibition ([1]; sample 0.31 % (w/v) in DMSO (3.12 mg/ml)): No zone
Zone of inhibition ([1]; sample 0.625 % (w/v) in DMSO): 10.0 mm
Zone of inhibition ([1]; sample 1.25 % (w/v) in DMSO): 12.0 mm
Zone of inhibition ([1]; sample 2.5 % (w/v) in DMSO): 13.0 mm
Zone of inhibition [1, 6]: 13.0 mm

COc1cc(/C=C/c2ccc(O)c(O)c2)cc(OC)c1 [3-hydroxypterostilbene]
Zone of inhibition ([1]; sample 0.078 % (w/v) in DMSO): No zone
Zone of inhibition ([1]; sample 0.156 % (w/v) in DMSO): No zone
Zone of inhibition ([1]; sample 0.31 % (w/v) in DMSO (3.12 mg/ml), listed as 3-Hydroxy Pterostilbene): 10.0 mm
Zone of inhibition ([1]; sample 0.31 % (w/v) in DMSO (3.12 mg/ml), listed as 3-Hydroxy pterostilbene): 10 mm
Zone of inhibition ([1]; sample 0.625 % (w/v) in DMSO): 13.0 mm
Zone of inhibition ([1]; sample 1.25 % (w/v) in DMSO): 15.0 mm
Zone of inhibition ([1]; sample 2.5 % (w/v) in DMSO): 17.0 mm
Zone of inhibition [1, 6]: 18.0 mm
Oral bioavailability (free form and glucoronide) [2]: orally bioavailable
Time to appearance in systemic circulation (free and conjugated form) [2]: ≤ 15 min
Urinary excretion form [2]: excreted predominantly as glucoronides in the urine
IC50 [3]: 0.7 µg/mL (≈ 2.57 µM)
IC50, anti tyrosinase activity (tyrosinase): IC50 is 2 μg/ml
Oxygen Radical Absorbance Capacity (ORAC) [4]: 13334 ± 323 μmol TE/100 g
SC50, DPPH scavenging (DPPH scavenging assay): SC50 is 1.34 μg/ml
IC50, anti collagenase (collagenase): IC50 is 90 μg/ml
IC50, anti Elastase (Elastase): IC50 is 82 μg/ml
IC50, anti α-glucosidase (α-glucosidase): IC50 is 203.7 μg/ml
Mutagenicity [5]: non mutagenic
NOAEL at 90 days (in vivo): 200 mg/kg
Necropsy and histopathology examination of tissues and organs (Sprague Dawley rats): did not reveal any pathological changes
